What all share (assay): growth of human tumour cells (NCI), 48 h
For test [1], the system named is A549.
Test [2] has as its system MOLT-4.
In test [3] the test system is SK-MEL-2.
Test [4] has as its system UACC-257.
The test system of test [5] is HOP-92.
Test [6] deals with COLO 205.
Test [7] concerns SF-539.
Test [8] relates to NCI-H226.
For test [9], the system named is SNB-19.
Test [10] relates to SNB-75.
Test [11] concerns SF-295.
Test [12] relates to U-251.
Test [13] relates to TK-10.
Test [14] has as its system UO-31.
Test [15] deals with A498.

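The compound was tested at five concentrations on cells cultured in 96-well plates, with a 48-hour exposure period. GI50: concentration for 50% inhibition of growth.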 Calls of active or inactive are those of the source. No stated cut-off is given here; in the data, active = GI50 up to about 1.1 µM and inactive = higher.

On to `CCCCN(CCCC)CC(C(C)=O)C(c1ccccc1)c1c(O)c2ccccc2oc1=O` (stereo unspecified), for which the GI50 in test [1] is > 100 µM (inactive); in test [2], > 100 µM (inactive); in test [3], > 100 µM (inactive); in test [4], > 100 µM (inactive); in test [5], 28 µM (inactive); in [6] it was > 100 µM (inactive). In addition, the GI50 is > 100 µM (inactive) in test [7]; > 100 µM (inactive) in test [8]; > 100 µM (inactive) in [9]; 19.3 µM (inactive) in [10]; > 100 µM (inactive) in test [11]; > 100 µM (inactive) in test [12]. The GI50 in test [13] was > 100 µM (inactive).
As to `CN(C)c1ccc(-c2nc(N)nc3c2CCCC3)cc1`, the GI50 was 52.8 µM (inactive) in [1]; 30.2 µM (inactive) in test [2]; 56.8 µM (inactive) in test [3]; 42.5 µM (inactive) in [6]; > 100 µM (inactive) in [7]; 51.3 µM (inactive) in test [8]. The GI50 in test [9] is > 100 µM (inactive); in test [14], 41.5 µM (inactive); in test [10], 42 µM (inactive); in [11] it was 38.5 µM (inactive); in test [12], 53.7 µM (inactive); in test [13], 49.1 µM (inactive). Besides, the GI50 in test [15] was 35.6 µM (inactive).
For `CC(=O)C1C(c2ccc(N(C)C)cc2)c2cc3c(cc2OC1(C)O)OCO3` (stereo unspecified), the GI50 in test [1] is 37.6 µM (inactive); in test [2] it was 32.1 µM (inactive); in [3], 33.3 µM (inactive); in test [4], 51.8 µM (inactive); in test [5], 8.32 µM (inactive); in [6], 41.1 µM (inactive). The GI50 was 75.7 µM (inactive) in [9]; 29.4 µM (inactive) in test [14]; 24.7 µM (inactive) in test [10]; 28.7 µM (inactive) in [11]; 52.7 µM (inactive) in test [12]; 51.2 µM (inactive) in test [13].
As to `Cc1cc(NCCCCCCNc2cc(C)nc3ccc(Cl)cc23)c2cc(Cl)ccc2n1`, the GI50 was 20.8 µM (inactive) in test [1]; 27.7 µM (inactive) in [2]; 26.2 µM (inactive) in test [3]; 20 µM (inactive) in [4]; 18.3 µM (inactive) in [6]; 15.9 µM (inactive) in test [7]. The GI50 in test [8] was > 100 µM (inactive); in [9], 25.9 µM (inactive); in [14] it was 23.5 µM (inactive); in [10] it was 17.4 µM (inactive); in test [11], 16.6 µM (inactive); in test [12], 16.9 µM (inactive). Also, the GI50 in [13] was 27 µM (inactive); in test [15], > 100 µM (inactive).
With `COC(=O)C(C(=O)C(=O)Nc1ccc(C)cc1)c1nc2ccc([N+](=O)[O-])cc2nc1O` (stereo unspecified), the GI50 in test [1] was > 100 µM (inactive); in test [2], 92.9 µM (inactive); in [3] it was > 100 µM (inactive); in [4], > 100 µM (inactive); in test [6] it was 53.5 µM (inactive); in [7], > 100 µM (inactive). Further, the GI50 in test [8] is > 100 µM (inactive); in test [9], > 100 µM (inactive); in [14], 66.1 µM (inactive); in test [10], > 100 µM (inactive); in test [11], > 100 µM (inactive); in [12], 37.6 µM (inactive). The GI50 in test [13] and in test [15] was > 100 µM (inactive) throughout.
For `CC(=O)OCC1OC(n2cc(F)c(=O)[nH]c2=O)C(NC(=O)N(CCCl)N=O)C(OC(C)=O)C1OC(C)=O` (stereo unspecified), the GI50 was 89.7 µM (inactive) in test [1]; 87.1 µM (inactive) in test [2]; > 100 µM (inactive) in test [4]; > 100 µM (inactive) in test [5]; > 100 µM (inactive) in test [6]; 29.3 µM (inactive) in test [7]. Besides, the GI50 is > 100 µM (inactive) in [9]; > 100 µM (inactive) in [14]; 16.6 µM (inactive) in test [10]; 43.1 µM (inactive) in test [11]; 88.9 µM (inactive) in test [12]; > 100 µM (inactive) in test [13]. Moreover, the GI50 in [15] was > 100 µM (inactive).
As to `CS/C(=N/C#N)NCCc1c[nH]c2ccccc12`, the GI50 in test [1] is > 100 µM (inactive); in test [2], 80.7 µM (inactive); in [4], > 100 µM (inactive); in test [6] it was > 100 µM (inactive); in test [7], > 100 µM (inactive); in test [8], > 100 µM (inactive). For the same compound, the GI50 in test [9] is > 100 µM (inactive); in test [14], 49 µM (inactive); in [10], 35.2 µM (inactive); in test [11] it was > 100 µM (inactive); in test [12], > 100 µM (inactive); in test [13], > 100 µM (inactive).
As to `CN(C)CC/C(=N\Nc1ccc(Cl)cc1)c1ccccc1`, the GI50 is 1.47 µM (inactive) in test [1]; 0.403 µM (active) in [2]; 1.86 µM (inactive) in test [3]; 1.64 µM (inactive) in test [4]; 1.75 µM (inactive) in test [6]; 1.92 µM (inactive) in test [7]. Also, the GI50 in test [9] is 2.43 µM (inactive); in [14] it was 0.25 µM (active); in test [10] it was 2.15 µM (inactive); in test [11], 0.374 µM (active); in test [12], 0.513 µM (active); in test [13], 0.593 µM (active). In test [15], the GI50 was 3.64 µM (inactive).
`CC(=O)Nc1cc2c(s1)CCC1CC(=O)NN=C21` (stereo unspecified): the GI50 in [1], in test [2], in [3], in test [6], in test [7] and in [8] was > 100 µM (inactive) throughout. Moreover, the GI50 was > 100 µM (inactive) in test [9]; > 100 µM (inactive) in [14]; 26.5 µM (inactive) in test [10]; > 100 µM (inactive) in test [11]; > 100 µM (inactive) in [12]; > 100 µM (inactive) in [13].
Take `O=C(NC(=O)c1cn(CCN(CCO)C(=O)NCCCCCCNC(=O)N(CCO)CCn2cc(C(=O)NC(=O)OCc3ccccc3)c(=O)[nH]c2=O)c(=O)[nH]c1=O)OCc1ccccc1`: the GI50 in [1], in test [2], in test [3], in test [4], in test [5] and in [6] was > 100 µM (inactive) in each case. The GI50 in test [7], in test [9], in [14], in [10], in [11] and in test [12] was > 100 µM (inactive) throughout. In test [13], the GI50 was > 100 µM (inactive).
As to `CC(C)(c1ccc(C=O)o1)c1ccc(C(C)(C)c2ccc(C=O)o2)o1`, the GI50 is > 100 µM (inactive) in test [1]; > 100 µM (inactive) in test [2]; > 100 µM (inactive) in test [3]; > 100 µM (inactive) in [4]; 69.5 µM (inactive) in test [5]; > 100 µM (inactive) in test [6]. For the same compound, the GI50 in test [7], in [8], in test [9], in test [11], in test [12] and in test [13] was > 100 µM (inactive) throughout. Besides, the GI50 in test [15] is > 100 µM (inactive).
In the case of `N#CC(C#N)C(c1ccccc1)c1ccccc1`, the GI50 is > 100 µM (inactive) in test [1]; 82 µM (inactive) in test [2]; > 100 µM (inactive) in test [3]; > 100 µM (inactive) in [4]; > 100 µM (inactive) in [5]; > 100 µM (inactive) in test [6]. Further, the GI50 in test [7], in test [8], in [9], in [14], in test [11] and in test [12] was > 100 µM (inactive) in each case. Moreover, the GI50 in test [13] and in test [15] was > 100 µM (inactive) throughout.
Regarding `O=C(/N=c1/[nH]/c(=N/C(=O)c2ccccc2)ss1)c1ccccc1`, the GI50 in test [1] is 11.4 µM (inactive); in test [2], 24.7 µM (inactive); in test [3], 19.4 µM (inactive); in test [4], 14.6 µM (inactive); in [6], 22.9 µM (inactive); in [7], 12.9 µM (inactive). The GI50 is 38.8 µM (inactive) in test [8]; 33.5 µM (inactive) in test [9]; 18.5 µM (inactive) in test [14]; 38.6 µM (inactive) in test [10]; 18 µM (inactive) in test [11]; 7.55 µM (inactive) in test [12]. In addition, the values for the GI50 in test [13] and in [15] were 26.1 µM (inactive) and 23.4 µM (inactive), respectively.
As to `CCCn1c(SCC)c2cc3cc4ccccc4cc3cc2c1-c1nc(F)nc(F)n1`, the GI50 in test [1], in test [2], in test [3], in test [4], in test [5] and in test [6] was > 100 µM (inactive) in each case. Further, the GI50 in test [7], in test [8], in test [9], in test [14], in [10] and in [11] was > 100 µM (inactive) in each case. Further, the GI50 in [13] is > 100 µM (inactive).
With `O=S(O)CCCSSc1ccccc1`, the GI50 is 25.5 µM (inactive) in [1]; 17.5 µM (inactive) in [2]; 74.6 µM (inactive) in [3]; 40.2 µM (inactive) in [4]; 43.4 µM (inactive) in test [6]; 25.3 µM (inactive) in test [7]. In addition, the GI50 in [9] is 96.8 µM (inactive); in test [14], 19.8 µM (inactive); in [10], 20.8 µM (inactive); in test [11] it was 53.2 µM (inactive); in test [12] it was 26.4 µM (inactive); in test [13], 40.1 µM (inactive). Also, in [15], the GI50 was 51.9 µM (inactive).

The record behind these values is ChEMBL document CHEMBL1201862, “PubChem BioAssay data set” (2004).
